The source of these data is ChEMBL document CHEMBL5385858, “Identification of novel Pyrrolo[2,3-d]Pyrimidine-based KRAS G12C inhibitors with anticancer effects” (Eur J Med Chem, 2023).

pIC50: −log10 of the molar value. The source made the active and inactive calls. The rule behind the calls is not given here.

In one assay the target is SOS1-KRAS (Homo sapiens, UniProt P01116, G12C). Kind of assay: Inhibition of KRAS G12C mutant/SOS1 (unknown origin) interaction incubated for 2 hrs in presence of GTP by HTRF assay. It counts as protein-complex assay.
Chain of SOS1-KRAS (P01116 whole entry G12C, looked up): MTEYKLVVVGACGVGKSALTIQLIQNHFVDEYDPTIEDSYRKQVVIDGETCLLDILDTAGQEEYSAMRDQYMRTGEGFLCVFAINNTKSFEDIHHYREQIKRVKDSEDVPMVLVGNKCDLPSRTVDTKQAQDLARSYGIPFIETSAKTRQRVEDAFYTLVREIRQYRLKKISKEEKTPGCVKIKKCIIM
The subject of the next assay is A549. Kind of assay: Antiproliferative activity against human A549 cells harboring KRAS G12S mutant assessed as inhibition of cell proliferation incubated for 3 days by CCK8 assay. The conditions noted are these: A549, 72 h. It counts as functional, cell-based. For orientation: Formazan colour is commonly taken as a measure of viable cells.
Another assay has as its system NCI-H1975. Kind of assay: Antiproliferative activity against human NCI-H1975 cells harboring wild-type KRAS assessed as inhibition of cell proliferation incubated for 3 days by CCK8 assay. It is filed as functional, cell-based. Particulars: NCI-H1975, 72 h.
The subject of assay [1] is NCI-H358. Kind of assay: Induction of apoptosis in human NCI-H358 cells assessed as viable cells at 0.1 uM incubated for 24 hrs by Annexin V-FITC/PI staining based flow cytometry (reference value: 91.4 %). It is filed as functional. A general note: Flow cytometry measures light scatter and fluorescence of single cells or particles in a stream.
In assay [2] the test system is NCI-H358. Kind of assay: Antiproliferative activity against human NCI-H358 cells harboring KRAS G12C mutant assessed as inhibition of cell proliferation incubated for 3 days by CCK8 assay. It counts as functional, cell-based. The conditions noted are these: NCI-H358, 72 h.
For assay [3], the system named is NCI-H358. Kind of assay: Inhibition of cell invasion in human NCI-H358 cells measured for 24 hrs by transwell assay. It is filed as functional, cell-based.
Assay [4] deals with NCI-H358. Kind of assay: Induction of apoptosis in human NCI-H358 cells assessed as early apoptotic cells at 0.1 uM incubated for 24 hrs by Annexin V-FITC/PI staining based flow cytometry (reference value: 5.4 %). It is filed as functional.
Assay [5] has as its system NCI-H358. Kind of assay: Induction of apoptosis in human NCI-H358 cells assessed as necrotic cells at 0.1 uM incubated for 24 hrs by Annexin V-FITC/PI staining based flow cytometry (reference value: 1.88 %). It counts as functional.
The next assay concerns MIA PaCa-2. Kind of assay: Antiproliferative activity against human MIA PaCa-2 cells harboring KRAS G12C mutant assessed as inhibition of cell proliferation incubated for 3 days by CCK8 assay. It is filed as functional, cell-based. The conditions noted are these: MIA PaCa-2, 72 h.
For assay [6], the system named is NCI-H358. Kind of assay: Antitumor activity in human NCI-H358 cells xenografted in BALB/c-nu/nu mouse assessed as tumor growth inhibition at 10 mg/kg, po qd treated for 20 days relative to control. It is filed as functional. The conditions noted are these: time 20 day.
Assay [7] has as its system NCI-H358. Kind of assay: Inhibition of cell migration in human NCI-H358 cells at 0.1 uM measured for 48 hrs by wound scratch assay. It counts as functional, cell-based.
The subject of assay [8] is NCI-H358. Kind of assay: Antiproliferative activity against human NCI-H358 cells harboring KRAS G12C/Y96D mutant assessed as inhibition of cell proliferation incubated for 48 hrs by CCK8 assay. It is filed as functional, cell-based.
In assay [9] the test system is NCI-H358. Kind of assay: Induction of apoptosis in human NCI-H358 cells assessed as late apoptotic cells at 0.1 uM incubated for 24 hrs by Annexin V-FITC/PI staining based flow cytometry (reference value: 1.32 %). It is filed as functional.

As to `C=CC(=O)N1CCN(c2nc(OC[C@@H]3CCCN3C)nc3c2cc(-c2cccc4cccc(C)c24)n3C)C[C@@H]1CC#N`, at SOS1-KRAS, the negative logarithm of the IC50 (pIC50) (in general, −log10 of the IC50, conventionally taken in molar units) was 5.81. The same measure, in the same setting: in the case of `C=CC(=O)N1CCN(c2nc(N3CCN(C)CC3)nc3c2cc(-c2cccc4cccc(C)c24)n3C)C[C@@H]1CC#N` it was < 5.00; in that of `C=CC(=O)N1CCN(c2nc(OCC34CCCN3CCC4)nc3c2cc(-c2cccc4cccc(C)c24)n3C)C[C@@H]1CC#N`, 6.47; in that of `C=CC(=O)N1CCN(c2nc(OC[C@H]3CCCN3C)nc3c2cc(-c2cccc4cccc(C)c24)n3C)C[C@@H]1CC#N`, 5.71. For the compound `C=C(F)C(=O)N1CCN(c2nc(OC[C@@H]3CCCN3C)nc3c2CCN(c2cccc4cccc(Cl)c24)C3)C[C@@H]1CC#N` [ADAGRASIB], the negative-log IC50 (pIC50) in the assay on A549 was 4.89; in the assay on NCI-H1975, 5.20; with NCI-H358 [2], 7.70; in the assay with MIA PaCa-2 it was 7.30. Also, the Activity was 79.9% with NCI-H358 [1]; “Dose-Dependent Effect” with NCI-H358 [3]; 14.5% with NCI-H358 [4]; 1.04% with NCI-H358 [5]; 4.52% in the assay on NCI-H358 [9]. Besides, in the assay on NCI-H358 [6], the TGI (as a rule, how far tumour growth fell short of that in controls) is recorded as 69.3%. The outcome with NCI-H358 [7] was Active. Further, in the assay with NCI-H358 [8], the inhibition entry was “inactive”. In the case of `C=CC(=O)N1CCN(c2nc(OC[C@@H]3CCCN3C)nc3c2cc(-c2cccc4cccc(OC)c24)n3C)C[C@@H]1CC#N`, the pIC50 at SOS1-KRAS was < 5.00. Turning to `C=CC(=O)N1CCN(c2nc(OC[C@@H]3CCCN3C)nc3c2cc(-c2cc(O)cc4ccccc24)n3C)C[C@@H]1CC#N`, on SOS1-KRAS, the pIC50 is 5.69.

In the case of `C=CC(=O)N1CCN(c2nc(OC[C@@H]3CCCN3C)nc3c2cc(-c2c(C)ccc4[nH]ncc24)n3C)C[C@@H]1CC#N`, the pIC50 on SOS1-KRAS was < 5.00. Turning to `C=CC(=O)N1CCN(c2nc(NCCN(C)C)nc3c2cc(-c2cccc4cccc(C)c24)n3C)C[C@@H]1CC#N`, the pIC50 on SOS1-KRAS was < 5.00. Still for that read-out and setting: in the case of `C=CC(=O)N1CCN(c2nc(OC[C@@H]3CCCN3C)nc3c2cc(-c2cccc4cccc(O)c24)n3C)C[C@@H]1CC#N` it was 5.49. On the same count and under the same terms, the figure for `C=CC(=O)N1CCN(c2nc(OC[C@@H]3CCCN3C)nc3c2cc(-c2c(C)ccc4c2cnn4C)n3C)C[C@@H]1CC#N` is < 5.00; for `C=CC(=O)N1CCN(c2nc(N3CCOCC3)nc3c2cc(-c2cccc4cccc(C)c24)n3C)C[C@@H]1CC#N` it is < 5.00; for `C=CC(=O)N1CCN(c2nc(OC[C@@H]3CCCN3C)nc3c2cc(-c2ccc4[nH]ncc4c2)n3C)C[C@@H]1CC#N` it is < 5.00.

As to `C=CC(=O)N1CCN(c2nc(OCCN(C(C)C)C(C)C)nc3c2cc(-c2cccc4cccc(C)c24)n3C)C[C@@H]1CC#N`, on SOS1-KRAS, the pIC50 was < 5.00.

With `C=CC(=O)N1CCN(c2nc(OCCN(C)C)nc3c2cc(-c2cccc4cccc(C)c24)n3C)C[C@@H]1CC#N`, the pIC50 on SOS1-KRAS is < 5.00. The same measure, in the same setting: in the case of `C=CC(=O)N1CCN(c2nc(OC[C@@H]3CCCN3C)nc3c2cc(-c2cc(OC)cc4ccccc24)n3C)C[C@@H]1CC#N` it was < 5.00.
